According to patent US20050101611A1, “Oral formulation comprising an inhibitor compound of the ileal bile transport and an hmg co-a reductase inhibitor” (priority 2000, published 2005):

Target: T1, ileal bile acid transport system (IBAT) (Homo sapiens, UniProt Q12908)
T1 sequence (Q12908 1-348): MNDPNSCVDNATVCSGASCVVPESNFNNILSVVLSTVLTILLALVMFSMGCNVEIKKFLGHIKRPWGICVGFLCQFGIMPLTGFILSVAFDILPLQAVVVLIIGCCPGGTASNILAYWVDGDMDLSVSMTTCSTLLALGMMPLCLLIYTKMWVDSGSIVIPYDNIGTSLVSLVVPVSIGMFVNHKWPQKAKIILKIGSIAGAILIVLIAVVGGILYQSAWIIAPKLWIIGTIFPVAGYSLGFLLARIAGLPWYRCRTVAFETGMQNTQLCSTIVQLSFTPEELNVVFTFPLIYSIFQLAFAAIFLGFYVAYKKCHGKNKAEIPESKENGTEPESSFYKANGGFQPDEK
Experiment: inhibition of IBAT
Details: statement in background text; no method or data given

For `COc1ccc([C@@H]2Sc3ccccc3N(CCN(C)C)C(=O)[C@@H]2OC(C)=O)cc1` [diltiazem], the “inhibition of IBAT” value was “no activity”.
